Reference: patent publication US20250302869A1, “USE OF INHALED NITRIC OXIDE (INO) FOR TREATING PATIENTS WITH PULMONARY HY[…] SARCOIDOSIS (PH-SARC)” (Mallinckrodt Pharmaceuticals Ireland Limited, priority 2022, published 2025)

How the values were obtained:
[1] = test system: patients with pulmonary hypertension associated with sarcoidosis (PH-SARC); assay: Safety and tolerability in the acute iNO dose escalation study; type: in vivo, human
Method: (§1) Patients were administered acute escalating doses of pulsatile iNO via an INOpulse device starting at 30 mcg/kg ideal body weight/hr (iNO30) and increasing up to 125 mcg/kg ideal body weight/hr (iNO125) to assess the impact of each dose level on hemodynamic parameters. Patients were treated with iNO for 10 minutes per dose with a 10-minute washout between doses.
(§2) During the Treatment Visit of Part 1 of the study, subjects were admitted to the cardiac catheterization suite/ICU/CCU and a Swan Ganz Catheter was inserted, and subjects were monitored during acute exposure to iNO at 30, 45, 75, 125 mcg/kg IBW/hr. Hemodynamic changes were monitored during this part of the study. The primary endpoint for Part 1 of the study was to assess the change in mean pulmonary artery pressure (mPAP), pulmonary capillary wedge pressure (PCWP), cardiac output (CO) and pulmonary vascular resistance (PVR) on iNO 30, 45, 75, 125 mcg/kg IBW/hr compared to baseline. The Safety Endpoint includes incidence and severity of treatment emergent adverse events (AEs), including those related to device deficiency, symptoms that may be due to rebound associated with acute withdrawal of iNO: systemic arterial oxygen desaturation, hypoxemia, bradycardia, tachycardia, systemic hypotension, shortness of breath, near-syncope, and syncope, and change in oxygen saturation and vital signs.

[2] = test system: patients with pulmonary hypertension associated with sarcoidosis (PH-SARC); assay: Acute iNO dose escalation study, right heart catheterization hemodynamics (Phase 2, Part 1); type: in vivo, human; conditions: for PVR change from baseline: pulsed, 10 min, baseline median 329.4; for PVR change from baseline / CO percent change from baseline / PCWP percent change from baseline / PVR percent change from baseline / mPAP percent change from baseline / CO change from baseline / PCWP change from baseline / mPAP change from baseline: median (IQR); for CO change from baseline: baseline median 5.9; for PCWP change from baseline: baseline median 13.5; for mPAP change from baseline: baseline median 37.2
Description: Patients with sarcoidosis may develop pulmonary hypertension (PH) which is associated with an impaired quality of life and limitations on activities of daily living. The Phase 2 trial, was designed to determine the safety and clinical efficacy of pulsed iNO, a potent and well-established vasodilator, on sarcoidosis-associated with PH patients, as well as to evaluate the safe and effective dose of iNO in subjects on long term oxygen therapy (LTOT) with possible or definite pulmonary hypertension associated with sarcoidosis.
Sarcoidosis patients with PH on prior right heart catherization (RHC) or on echocardiography were enrolled in a two-part open label study. Patients underwent RHC, to establish baseline hemodynamics including mean pulmonary arterial pressure (mPAP), cardiac output (CO), pulmonary wedge pressure (PCWP) with derivation of pulmonary vascular resistance (PVR).
as §1
Each dose level was followed by a washout period. All hemodynamic wave forms were reviewed by a blinded hemodynamic core lab for determination of end-exhalation PAP and PCWP. After the acute vasodilator study, subjects were eligible to participate in a long-term open label extension study at the dose of iNO found to be most beneficial by the RHC measurements, as determined by the investigator.
as §2
The changes in hemodynamics were determined for absolute change (as shown in FIGS. 2A-2D) and percent change (as shown in FIGS. 2E-2H) from baseline in PVR, mPAP, CO and PCWP. The analysis depicted illustrates the change from baseline (box & whisker plot provides median, IQR, and min/max). Statistical analysis based on Wilcoxon […] was assessed between baseline and each dose as well as each dose and each prior dose and no correction was conducted for multiplicity.

Question: For `[N]=O` [iNO, nitric oxide], which tolerability ([1]; across all the doses iNO30 to iNO125) is on record?
Answer: well-tolerated

Question: What about the “adverse events or serious adverse events related to iNO” value ([1]; acute doses iNO30 to iNO125, 8 patients) of the same compound?
Answer: No adverse events or serious adverse events related to iNO were reported

Question: And the “median mPAP reduction from baseline across the doses” value ([2]; across the doses of iNO30 to iNO125, baseline median mPAP 37.2 mmHg)?
Answer: 6-10%

Question: What about the “patients demonstrating decreases in mPAP and PVR” value ([2]; across the doses of iNO from iNO30 to iNO125, blinded core lab, 8 patients) of the same compound?
Answer: all 8 patients demonstrated decreases in mPAP and PVR

Question: What about the “PCWP across all doses” value ([2]; all doses iNO30 to iNO125) of the same compound?
Answer: remained stable

Question: And the “cardiac output (CO) across all doses” value ([2]; all doses iNO30 to iNO125)?
Answer: remained stable

Question: And the “PVR change from baseline” value ([2]; iNO30 (30 mcg/kg IBW/hr))?
Answer: −19.2 (39.0) dyne*sec*cm-5

Question: What about the “CO percent change from baseline” value ([2]; iNO30 (30 mcg/kg IBW/hr)) of the same compound?
Answer: −2.5% (11.2)

Question: And the “PCWP percent change from baseline” value ([2]; iNO30 (30 mcg/kg IBW/hr))?
Answer: −4.1% (29.1%)

Question: And the “PVR percent change from baseline” value ([2]; iNO30 (30 mcg/kg IBW/hr))?
Answer: −7.0% (10.6%)

Question: And the “mPAP percent change from baseline” value ([2]; iNO30 (30 mcg/kg IBW/hr))?
Answer: −7.1% (10.0%)

Question: And the “CO change from baseline” value ([2]; iNO30 (30 mcg/kg IBW/hr))?
Answer: −0.1 (0.6) L/min

Question: What about the “PCWP change from baseline” value ([2]; iNO30 (30 mcg/kg IBW/hr)) of the same compound?
Answer: −1.0 (4.3) mmHg

Question: What about the “mPAP change from baseline” value ([2]; iNO30 (30 mcg/kg IBW/hr)) of the same compound?
Answer: −2.7 (2.8) mmHg

Question: What about the “PVR change from baseline” value ([2]; iNO45 (45 mcg/kg IBW/hr)) of the same compound?
Answer: −48.4 (84.6) dyne*sec*cm-5

Question: And the “CO percent change from baseline” value ([2]; iNO45 (45 mcg/kg IBW/hr))?
Answer: 1.0% (6.5%)

Question: And the “PCWP percent change from baseline” value ([2]; iNO45 (45 mcg/kg IBW/hr))?
Answer: 0.0% (20.5%)

Question: And the “mPAP percent change from baseline” value ([2]; iNO45 (45 mcg/kg IBW/hr))?
Answer: −10.6% (15.8%)

Question: And the “CO change from baseline” value ([2]; iNO45 (45 mcg/kg IBW/hr))?
Answer: 0.0 (0.3) L/min

Question: And the “PCWP change from baseline” value ([2]; iNO45 (45 mcg/kg IBW/hr))?
Answer: 0.0 (2.5) mmHg

Question: What about the “mPAP change from baseline” value ([2]; iNO45 (45 mcg/kg IBW/hr)) of the same compound?
Answer: −4.0 (5.2) mmHg

Question: What about the “median decrease of PVR from baseline” value ([2]; iNO45 dose, range −54% to +22%, baseline median PVR 329 dyne*sec*cm-5) of the same compound?
Answer: 20%

Question: What about the “PVR change from baseline” value ([2]; iNO75 (75 mcg/kg IBW/hr)) of the same compound?
Answer: −68.0 (92.7) dyne*sec*cm-5

Question: And the “CO percent change from baseline” value ([2]; iNO75 (75 mcg/kg IBW/hr))?
Answer: 0.1% (6.1%)

Question: What about the “PCWP percent change from baseline” value ([2]; iNO75 (75 mcg/kg IBW/hr)) of the same compound?
Answer: 10.6% (29.5%)

Question: What about the “PVR percent change from baseline” value ([2]; iNO75 (75 mcg/kg IBW/hr)) of the same compound?
Answer: −15.3% (37.7%)

Question: And the “mPAP percent change from baseline” value ([2]; iNO75 (75 mcg/kg IBW/hr))?
Answer: −6.3% (13.2%)

Question: What about the “CO change from baseline” value ([2]; iNO75 (75 mcg/kg IBW/hr)) of the same compound?
Answer: 0.0 (0.4) L/min

Question: And the “PCWP change from baseline” value ([2]; iNO75 (75 mcg/kg IBW/hr))?
Answer: 1.5 (4.3) mmHg

Question: What about the “mPAP change from baseline” value ([2]; iNO75 (75 mcg/kg IBW/hr)) of the same compound?
Answer: −2.3 (3.9) mmHg

Question: And the “PVR change from baseline” value ([2]; iNO125 (125 mcg/kg IBW/hr))?
Answer: −85.8 (67.1) dyne*sec*cm-5

Question: What about the “CO percent change from baseline” value ([2]; iNO125 (125 mcg/kg IBW/hr)) of the same compound?
Answer: 4.2% (14.6%)

Question: What about the “PCWP percent change from baseline” value ([2]; iNO125 (125 mcg/kg IBW/hr)) of the same compound?
Answer: 0.0% (30.7%)

Question: And the “PVR percent change from baseline” value ([2]; iNO125 (125 mcg/kg IBW/hr))?
Answer: −28.7% (20.8%)

Question: And the “mPAP percent change from baseline” value ([2]; iNO125 (125 mcg/kg IBW/hr))?
Answer: −6.4% (11.0%)

Question: What about the “CO change from baseline” value ([2]; iNO125 (125 mcg/kg IBW/hr)) of the same compound?
Answer: 0.2 (0.8) L/min

Question: And the “PCWP change from baseline” value ([2]; iNO125 (125 mcg/kg IBW/hr))?
Answer: 0.0 (4.0) mmHg

Question: What about the “mPAP change from baseline” value ([2]; iNO125 (125 mcg/kg IBW/hr)) of the same compound?
Answer: −3.0 (3.5) mmHg

Question: And the “median decrease of PVR from baseline” value ([2]; iNO125 dose, range −43% to −5%, p=0.02 vs. baseline and prior dose)?
Answer: 29%
